# Results published in PubChem BioAssay AID1259408 (Genetic Toxicology Data Bank (GENE-TOX), 2018).
# The source made the active and inactive calls. No rule for the calls is given here.
# System: GENE-TOX genotoxicity assays, various organisms and cells
# Experiment: GENE-TOX mutagenicity studies
# Details: for call: Assay Type: In vivo carcinogenicity studies
# [1] = Species/Cell Type: Escherichia coli polA (W3119 vs P3478), Assay Type: Rec-assay, DNA effects (bacterial DNA repair), Assay Code: RE1T, Evaluation Type: Evaluation A (Pre-1980)
# [2] = Species/Cell Type: Human lymphocytes, Assay Type: Sister-chromatid exchange (SCE) in vivo, Assay Code: SCY+, Evaluation Type: Evaluation B (Post-1980)
# [3] = Species/Cell Type: Mammalian polychromatic erythrocytes, Assay Type: Micronucleus test, chromosome aberrations, Assay Code: MNT+, Evaluation Type: Evaluation A (Pre-1980)
# [4] = Species/Cell Type: Rodents, Sex: Male, Assay Type: Dominant lethal test, Assay Code: DLTT, Evaluation Type: Evaluation A (Pre-1980)
# [5] = Species/Cell Type: Salmonella typhimurium (one or more of the five standard strains: TA98, TA100, TA1535, TA1537, and TA1538), Assay Type: Histidine reverse gene mutation, Ames assay, Assay Code: SALT, Evaluation Type: Evaluation A (Pre-1980)
# [6] = Species/Cell Type: Human, Assay Type: Sister-chromatid exchange (SCE) in vitro, Assay Code: SC1+D, Dose Response: With dose response, Evaluation Type: Evaluation B (Post-1980)
# [7] = Species/Cell Type: Drosophila melanogaster, Assay Type: Sex-linked recessive lethal gene mutation, Assay Code: SRL+, Evaluation Type: Evaluation A (Pre-1980)
# [8] = Species/Cell Type: Nonhuman, Assay Code: CCG+, Evaluation Type: Evaluation A (Pre-1980)
# [9] = Species/Cell Type: Salmonella typhimurium (one or more of the five standard strains: TA98, TA100, TA1535, TA1537, and TA1538), Assay Type: Histidine reverse gene mutation, Ames assay, Assay Code: SAL+, Evaluation Type: Evaluation A (Pre-1980)
smiles,measurement,setting,value
CN(Cc1cnc2nc(N)nc(N)c2n1)c1ccc(C(=O)N[C@@H](CCC(=O)O)C(=O)O)cc1,mutagenic call,"Species/Cell Type: Arabidopsis species, Assay Type: Gene mutation, Assay Code: ARM-, Evaluation Type: Evaluation A (Pre-1980)",inactive; negative
same,mutagenic call,"Species/Cell Type: Escherichia coli WP2, Assay Type: Tryptophan reverse gene mutation, Assay Code: WP2+, Evaluation Type: Evaluation A (Pre-1980)",active; positive
same,mutagenic call,[1],no conclusion
same,mutagenic call,"Species/Cell Type: Human diploid fibroblasts, Assay Type: Unscheduled DNA synthesis (UDS) in vitro, DNA effects, Assay Code: UDH-, Evaluation Type: Evaluation A (Pre-1980)",inactive; negative
same,mutagenic call,[2],active; positive
same,mutagenic call,"Species/Cell Type: Human, Sex: Male, Assay Type: Sperm morphology, Assay Code: SPH+, Evaluation Type: Evaluation A (Pre-1980)",active; positive
same,mutagenic call,"Species/Cell Type: Mammalian oocytes or early embryo, Assay Type: Chromosome aberrations in vivo, Assay Code: CYO+D, Dose Response: With dose response, Evaluation Type: Evaluation A (Pre-1980)",active; positive
same,mutagenic call,[3],active; positive
same,mutagenic call,"Species/Cell Type: Mouse (C3H/10T1/2) cells, Assay Type: Cell transformation, Assay Code: CTH+D, Dose Response: With dose response, Evaluation Type: Evaluation A (Pre-1980)",active; positive
same,mutagenic call,"Species/Cell Type: Mouse lymphoma (L5178Y) cells, Assay Type: Forward gene mutation at the thymidine kinase (TK) locus, chromosome aberrations, Assay Code: L51+, Evaluation Type: Evaluation A (Pre-1980)",active; positive
same,mutagenic call,"Species/Cell Type: Neurospora crassa, Assay Type: Aneuploidy, chromosome aberrations, Assay Code: NEN+, Evaluation Type: Evaluation A (Pre-1980)",active; positive
same,mutagenic call,"Species/Cell Type: Nonhuman, Assay Type: Chromosome aberrations in vitro, Assay Code: CY&+D, Dose Response: With dose response, Evaluation Type: Evaluation A (Pre-1980)",active; positive
same,call,"Species/Cell Type: Nonhuman, Assay Code: CCG-L, Evaluation Type: Evaluation A (Pre-1980)",inactive; negative
same,mutagenic call,"Species/Cell Type: Nonhuman, Assay Type: Sister-chromatid exchange (SCE) in vitro, Assay Code: SC2+, Evaluation Type: Evaluation A (Pre-1980)",active; positive
same,mutagenic call,[4],no conclusion
same,mutagenic call,"Species/Cell Type: Saccharomyces cerevisiae, Assay Type: Mitotic recombination or gene conversion, Assay Code: YEH+, Evaluation Type: Evaluation A (Pre-1980)",active; positive
same,mutagenic call,[5],no conclusion
same,mutagenic call,"Species/Cell Type: Serratia marcesens, Assay Type: Reverse gene mutation, host-mediated assay, Assay Code: HMC+, Evaluation Type: Evaluation A (Pre-1980)",active; positive
same,mutagenic call,"Species/Cell Type: Syrian hamster embryo (SHE) cells, Assay Type: Cell transformation, clonal assay, Assay Code: CTC-, Evaluation Type: Evaluation A (Pre-1980)",inactive; negative
OC(c1ccccc1)C(c1ccccc1)c1ccccc1 (configuration not stated),mutagenic call,[1],no conclusion
COP(=S)(OC)Oc1cc(Cl)c(Cl)cc1Cl,mutagenic call,[6],active; positive
CNC1(c2ccccc2Cl)CCCCC1=O (configuration not stated),mutagenic call,[5],no conclusion
N[C@@H](Cc1ccc(N(CCCl)CCCl)cc1)C(=O)O,mutagenic call,[7],active; positive
same,mutagenic call,"Species/Cell Type: Drosophila melanogaster, Sex: Male, Assay Type: Heritable translocation test, chromosome aberrations, Assay Code: DHTT, Evaluation Type: Evaluation A (Pre-1980)",no conclusion
same,mutagenic call,"Species/Cell Type: Escherichia coli polA (W3110 vs P3478), Assay Type: Rec-assay, DNA effects (bacterial DNA repair), Assay Code: RE2+, Evaluation Type: Evaluation A (Pre-1980)",active; positive
same,mutagenic call,[1],no conclusion
same,mutagenic call,"Species/Cell Type: Human cell culture, Assay Type: Chromosome aberrations in vitro, Assay Code: CYZ+, Evaluation Type: Evaluation A (Pre-1980)",active; positive
same,mutagenic call,"Species/Cell Type: Human lymphocytes, Assay Type: Sister-chromatid exchange (SCE) in vitro, Assay Code: SCL+, Evaluation Type: Evaluation A (Pre-1980)",active; positive
same,mutagenic call,"Species/Cell Type: Human lymphocytes, Assay Type: Sister-chromatid exchange (SCE) in vitro, Assay Code: SCL+D, Dose Response: With dose response, Evaluation Type: Evaluation B (Post-1980)",active; positive
same,mutagenic call,[2],active; positive
same,mutagenic call,[6],active; positive
same,mutagenic call,"Species/Cell Type: Mouse (C3H/10T1/2) cells, Assay Type: Cell transformation, Assay Code: CTH+, Evaluation Type: Evaluation A (Pre-1980)",active; positive
same,mutagenic call,"Species/Cell Type: Nonhuman, Assay Type: Chromosome aberrations in vitro, Assay Code: CY&+, Evaluation Type: Evaluation A (Pre-1980)",active; positive
same,call,[8],active; positive
same,mutagenic call,"Species/Cell Type: Nonhuman, Assay Type: Sister-chromatid exchange (SCE) in vitro, Assay Code: SC2+D, Dose Response: With dose response, Evaluation Type: Evaluation A (Pre-1980)",active; positive
same,mutagenic call,[9],active; positive
NC(Cc1ccc(Oc2ccc(N(CCCl)CCCl)cc2)cc1)C(=O)O (configuration not stated),mutagenic call,[7],active; positive
CN(C)/N=N/c1nc[nH]c1C(N)=O,mutagenic call,"Species/Cell Type: Chinese hamster ovary (CHO) cells, Assay Type: Forward gene mutation at the HPRT locus, Assay Code: CHO+, Evaluation Type: Evaluation B (Post-1980)",active; positive
same,mutagenic call,[7],active; positive
same,mutagenic call,[2],active; positive
same,call,[8],active; positive
same,mutagenic call,"Species/Cell Type: Nonhuman, Assay Type: Sister-chromatid exchange (SCE) in vitro, Assay Code: SC2+, Evaluation Type: Evaluation B (Post-1980)",active; positive
CC(=O)Nc1ccc2c(c1)Cc1cc(NC(C)=O)ccc1-2,mutagenic call,[9],active; positive
Cn1cnc([N+](=O)[O-])c1Sc1ncnc2nc[nH]c12,mutagenic call,"Species/Cell Type: Drosophila melanogaster, Assay Type: Aneuploidy, partial sex chromosome loss, chromosome aberrations, Assay Code: DAP+M, Evaluation Type: Evaluation A (Pre-1980)",active; positive
same,mutagenic call,"Species/Cell Type: Drosophila melanogaster, Assay Type: Aneuploidy, sex chromosome gain, chromosome aberrations, Assay Code: DAG+M, Evaluation Type: Evaluation A (Pre-1980)",active; positive
same,mutagenic call,"Species/Cell Type: Drosophila melanogaster, Assay Type: Aneuploidy, whole sex chromosome loss, chromosome aberrations, Assay Code: DACT, Evaluation Type: Evaluation A (Pre-1980)",no conclusion
same,mutagenic call,"Species/Cell Type: Human lymphocytes, Assay Type: Sister-chromatid exchange (SCE) in vitro, Assay Code: SCLT, Evaluation Type: Evaluation B (Post-1980)",no conclusion
same,mutagenic call,[2],active; positive
same,mutagenic call,"Species/Cell Type: Human, Assay Type: Sister-chromatid exchange (SCE) in vitro, Assay Code: SC1T, Evaluation Type: Evaluation B (Post-1980)",no conclusion
same,mutagenic call,[3],active; positive
same,mutagenic call,"Species/Cell Type: Mouse, Sex: Male, Assay Type: Sperm morphology, Assay Code: SPI+, Evaluation Type: Evaluation A (Pre-1980)",active; positive
same,mutagenic call,"Species/Cell Type: Neurospora crassa, Assay Type: Forward and reverse gene mutation, lethal mutation, host-mediated assay, Assay Code: HMD+, Evaluation Type: Evaluation A (Pre-1980)",active; positive
same,mutagenic call,"Species/Cell Type: Neurospora crassa, Assay Type: Forward gene mutation, Assay Code: NEF+, Evaluation Type: Evaluation A (Pre-1980)",active; positive
same,call,"Species/Cell Type: Nonhuman, Assay Code: CCG+L, Evaluation Type: Evaluation A (Pre-1980)",active; positive
same,mutagenic call,"Species/Cell Type: Nonhuman, Assay Type: Sister-chromatid exchange (SCE) in vivo, Assay Code: SC3-, Evaluation Type: Evaluation B (Post-1980)",inactive; negative
same,mutagenic call,[4],no conclusion
same,mutagenic call,[9],active; positive
